Source: publication PMC8175350, “Drug repurposing screens identify chemical entities for the development of COVID-19 interventions” (Nature Communications, 2021)
Like-named read-outs stand apart in the source and are kept apart here.

How the values were obtained:
in vitro = details: human
SARS-CoV-2 [1] = experiment: microbe, parasite or virus in culture; assay type: cell-based; details: for HeLa-ACE2 CoV-2 Sinf Average: curve-fit effect at infinite concentration
Calu-3 cells [2] = experiment: cells; details: Homo sapiens; for Emax: Calu-3, 48 h
[3] = Uninfected HeLa-ACE2 24 h live/dead cytotoxicity counter screen; assay type: cell-based, human; details: human, uninfected HeLa-ACE2 cells
HeLa-ACE2 cells [4] = experiment: as above; assay type: cell-based, human
[5] = human, cited from earlier work; for Approx. t1/2: ref [33]-[49]
HeLa-ACE2 cells [6] = experiment: Total cell count in the HeLa-ACE2 TOA (time of addition) assay; assay type: cell-based, human; details: Homo sapiens, HeLa-ACE2; read-out: HeLa-ACE2 TOA cell count EC50 GeoMean
SARS-CoV-2 [7] = assay type: cell-based
HepG2 = details: human, 72 h
SARS-CoV-2 [8] = experiment: microbe, parasite or virus in culture; assay type: cell-based; details: for Emax: Severe acute respiratory syndrome coronavirus 2, Calu-3, 48 h; for Calu-3 CoV-2 Sinf Average: curve-fit effect at infinite concentration
HeLa-ACE2 cells [9] = experiment: cells; details: Homo sapiens
Calu-3 cells [10] = tested on: Calu-3 cells
SARS-CoV-2 [11] = experiment: microbe, parasite or virus in culture; assay type: cell-based
HEK293T = details: human, 72 h
HeLa-ACE2 cells [12] = tested on: HeLa-ACE2 cells
Calu-3 cells [13] = experiment: Uninfected Calu-3 48 h Cell-Titer Glo cytotoxicity counter screen
Calu-3 cells [14] = details: for Calu-3 cell count Sinf Average: curve-fit effect at infinite concentration; for EC50: read-out: Calu-3 cell count EC50 GeoMean, unrounded geometric mean
[15] = reconfirmed hits, read-out: HeLa-ACE2 Uninf. cells CC50
[16] = unrounded geometric mean, read-out: HeLa-ACE2 CoV-2 EC50 GeoMean
[17] = curve-fit effect at infinite concentration, average
[18] = read-out: Calu-3 uninfected cytotoxicity CC50 GeoMean, unrounded geometric mean
[19] = unrounded geometric mean, read-out: HeLa-ACE2 uninfected cytotoxicity CC50 GeoMean
[20] = unrounded geometric mean, read-out: Calu-3 CoV-2 EC50 GeoMean

In the case of `COc1ccc2c(O[C@@H]3C[C@H]4C(=O)N[C@]5(C(=O)NS(=O)(=O)C6CC6)C[C@H]5/C=C\CCCCN(C)C(=O)[C@@H]4C3)cc(-c3nc(C(C)C)cs3)nc2c1C` [Simeprevir], the CC50 at 48 h (in vitro; Calu-3 Uninf. cells CC50 (µM)) is reported as > 22.4 µM, the Emax (SARS-CoV-2 [1]; Severe acute respiratory syndrome coronavirus 2, HeLa-ACE2, 24 h, read-out: HeLa-ACE2 CoV-2 Sinf Average) is reported as 100% and the EC50 (SARS-CoV-2 [1]; Severe acute respiratory syndrome coronavirus 2, HeLa-ACE2, detail column, read-out: HeLa-ACE2 CoV-2 EC50 GeoMean) is reported as > 7.88 µM. The EC50 (SARS-CoV-2 [1]; Severe acute respiratory syndrome coronavirus 2, HeLa-ACE2, reconfirmed hits, read-out: HeLa-ACE2 SARS-CoV-2 EC50) was 7.88 µM, the “HeLa-ACE2 SI” value (SARS-CoV-2 [1]; selectivity index, uninfected HeLa-ACE2 CC50 / SARS-CoV-2 EC50) was > 2.81 and the Emax (Calu-3 cells [2]; read-out: Calu-3 cell count Sinf Average) was 100%. The EC50 (Calu-3 cells [2]; Calu-3, read-out: Calu-3 cell count EC50 GeoMean) was > 9.6 µM, the CC50 at 24 h [3, 15] was > 22.2 µM and the CC50 at 24 h ([3]; read-out: HeLa-ACE2 uninfected cytotoxicity CC50 GeoMean) was > 22.2 µM. For the same compound, the “HeLa-ACE2 uninfected cytotoxicity Sinf Average” value (HeLa-ACE2 cells [4]; human, uninfected HeLa-ACE2 cells, 24 h) was -100%, the Cmax ([5]; in vivo, po) was 32 µM and the “Approx. t1/2” value [5] was 16 h. For the same compound, the EC50 (HeLa-ACE2 cells [6]) was > 9.59 µM, the “Synergy score with remdesivir (δ)” value (SARS-CoV-2 [7]; HeLa-ACE2) was −0.67 and the “HeLa-ACE2 synergy score with remdesivi” value (SARS-CoV-2 [7]; combination with remdesivir) was -0.667 δ. The “HepG2 72-hour cytotoxicity Sinf Average” value (HepG2) was -100%, the Emax (SARS-CoV-2 [8]; read-out: Calu-3 CoV-2 Sinf Average) was 100% and the EC50 (SARS-CoV-2 [8]; Severe acute respiratory syndrome coronavirus 2, Calu-3, detail column, read-out: Calu-3 CoV-2 EC50 GeoMean) was > 7.7 µM. For the same compound, the EC50 (SARS-CoV-2 [8]; Severe acute respiratory syndrome coronavirus 2, Calu-3, reconfirmed hits, read-out: Calu-3 SARS-CoV-2 EC50) was 7.7 µM, the “Calu-3 SI” value (SARS-CoV-2 [8]; selectivity index, uninfected Calu-3 CC50 / SARS-CoV-2 EC50) was > 2.91 and the Emax (HeLa-ACE2 cells [9]; HeLa-ACE2, 24 h, read-out: HeLa-ACE2 cell count Sinf Average) was 100%. For the same compound, the EC50 (HeLa-ACE2 cells [9]; HeLa-ACE2, read-out: HeLa-ACE2 cell count EC50 GeoMean) was > 9.47 µM, the “uninfected Calu-3 CC50” value (Calu-3 cells [10]) was > 22.39 ×÷ 1.591 (n=6) μM and the “Calu-3 uninfected cytotoxicity Sinf Average” value (Calu-3 cells [10]; human, 48 h) was -100%. The Emax (SARS-CoV-2 [11]; Severe acute respiratory syndrome coronavirus 2, HeLa-ACE2, 10 h, read-out: HeLa-ACE2 TOA CoV-2 Sinf Average) was 100%, the EC50 (SARS-CoV-2 [11]; Severe acute respiratory syndrome coronavirus 2, HeLa-ACE2, read-out: HeLa-ACE2 TOA CoV-2 EC50 GeoMean) was > 8.62 µM and the “HEK293T 72-hour cytotoxicty Sinf Average” value (HEK293T) was -102%.
In the case of `CN(C)C(C(=O)Nc1ccc2c(=O)[nH]ccc2c1)c1ccsc1` (stereo not drawn) [Verosudil], the CC50 at 48 h (in vitro; Calu-3 uninfected cytotoxicity CC50 GeoMean (µM)) is reported as > 18.9 µM, the EC50 (SARS-CoV-2 [1]; Severe acute respiratory syndrome coronavirus 2, HeLa-ACE2, geometric mean of replicates, read-out: HeLa-ACE2 CoV-2 EC50 GeoMean) is reported as > 9.59 µM and the “HeLa-ACE2 cell count Sinf Average (%)” value (HeLa-ACE2 cells [12]; Sinf average of the curves) is reported as -100%. The Emax (Calu-3 cells [2]; read-out: Calu-3 cell count Sinf Average (%)) was 79%, the EC50 (Calu-3 cells [2]; Calu-3, read-out: Calu-3 cell count EC50 GeoMean (µM), geometric mean of replicates) was 0.561 µM and the CC50 at 24 h ([3]; geometric mean of replicates, read-out: HeLa-ACE2 uninfected cytotoxicity CC50 GeoMean) was > 39.8 µM. The “HeLa-ACE2 uninfected cytotoxicity Sinf Average (%)” value (HeLa-ACE2 cells [4]; Sinf average of the curves) was -100%, the Emax (SARS-CoV-2 [8]; Sinf average of the curves, read-out: Calu-3 CoV-2 Sinf Average (%)) was 93% and the EC50 (SARS-CoV-2 [8]; Severe acute respiratory syndrome coronavirus 2, Calu-3, geometric mean of replicates, read-out: Calu-3 CoV-2 EC50 GeoMean) was > 3.51 µM. For the same compound, the EC50 (HeLa-ACE2 cells [9]; HeLa-ACE2, read-out: HeLa-ACE2 cell count EC50 GeoMean (µM), geometric mean of replicates) was > 9.59 µM, the “uninfected Calu-3 CC50 [μM]” value (Calu-3 cells [10]) was > 18.887 ×÷ 2.21 (n=3) μM and the “Calu-3 uninfected cytotoxicity Sinf Average (%)” value (Calu-3 cells [10]; human, 48 h) was 80%.
With Deazaneplanocin A the “HeLa-ACE2 CoV-2 Sinf Average” value (SARS-CoV-2 [1]) was -100%, the EC50 (SARS-CoV-2 [1]; [16]) was > 9.59 µM and the “Calu-3 uninfected cytotoxicity Sinf Average” value (Calu-3 cells [13]; [17]) was -70%. For the same compound, the CC50 (Calu-3 cells [13]; [18]) was > 10.3 µM, the “HeLa-ACE2 uninfected cytotoxicity Sinf Average” value (HeLa-ACE2 cells [4]; [17]) was -79% and the CC50 (HeLa-ACE2 cells [4]; [19]) was > 7.95 µM. The “Calu-3 cell count Sinf Average” value (Calu-3 cells [14]) was 62%, the EC50 (Calu-3 cells [14]) was 0.108 µM and the “Calu-3 CoV-2 Sinf Average” value (SARS-CoV-2 [8]) was -85%. The EC50 (SARS-CoV-2 [8]; [20]) was 0.0568 µM.
In the case of Mitoguazone, the “HeLa-ACE2 CoV-2 Sinf Average” value (SARS-CoV-2 [1]) is reported as -100%, the EC50 (SARS-CoV-2 [1]; reconfirmed hits, read-out: HeLa-ACE2 SARS-CoV-2 EC50) is reported as > 9.6 µM and the EC50 (SARS-CoV-2 [1]; [16]) is reported as > 9.59 µM. For the same compound, the CC50 (Calu-3 cells [13]; read-out: Calu-3 Uninf. cells CC50, reconfirmed hits) was > 30 µM, the CC50 (Calu-3 cells [13]; [18]) was > 29.9 µM and the “HeLa-ACE2 uninfected cytotoxicity Sinf Average” value (HeLa-ACE2 cells [4]; [17]) was -99%. The CC50 (HeLa-ACE2 cells [4]; [15]) was > 40 µM, the CC50 (HeLa-ACE2 cells [4]; [19]) was > 39.8 µM and the “Approx. t1/2” value [5] was 175 h. For the same compound, the Cmax ([5]; read-out: Approx. Cmax, IV, ref [44]) was 120 µM, the “Calu-3 cell count Sinf Average” value (Calu-3 cells [14]) was 71% and the EC50 (Calu-3 cells [14]) was > 4.07 µM. For the same compound, the “Calu-3 CoV-2 Sinf Average” value (SARS-CoV-2 [8]) was -94%, the EC50 (SARS-CoV-2 [8]; reconfirmed hits, read-out: Calu-3 SARS-CoV-2 EC50) was 0.446 µM and the EC50 (SARS-CoV-2 [8]; [20]) was 0.446 µM.
With Oligomycin A the EC50 (SARS-CoV-2 [1]; [16]) was > 9.59 µM, the EC50 (HeLa-ACE2 cells [12]; read-out: HeLa-ACE2 cell count EC50 GeoMean, unrounded geometric mean) was > 9.59 µM and the “Calu-3 cell count Sinf Average” value (Calu-3 cells [14]) was 50%. For the same compound, the EC50 (Calu-3 cells [14]) was > 0.22 µM and the EC50 (SARS-CoV-2 [8]; [20]) was < 0.00735 µM.
